Experimental data: patent US6641571B2, “Reduction of postoperative complications of cardiopulmonary bypass (CPB) surgery” (Ed. Geistlich Soehne AG fuer Chemische Industrie, priority 2000, dated 2003)

How the values were obtained:
Format in all cases: in vivo, human
[1] = tested on: IL-6; assay: Randomized clinical trial in CPB patients: IL-6 level by ELISA
Description: (§1) A randomized prospective clinical trial was performed. Thirty-four consecutive patients with an ejection fraction >30%, undergoing elective coronary artery bypass grafting were randomized into four groups. Groups A and B received taurolidine (250 mL 2% taurolidine) intravenously at induction through a central line. These patients also received two further doses of taurolidine at 12 hour intervals (2×250 mL 2% taurolidine/day) for the first 24 hours following surgery, but in group A crystalloid cardioplegia was used for myocardial protection and in group B blood cardioplegia was used. Groups C and D received saline vehicle controls while group C had crystalloid cardioplegia and group D received blood cardioplegia. Blood samples were taken pre-operatively, at the time of aortic unclamping, 2 hours, 6 hours and 24 hours post aortic unclamping. Neutrophil and monocyte respiratory burst, phagocytosis ability, CD11b and CD14 expression were assessed using flow cytometry. Plasma interleukins 6, 8 and 10 (IL-6, IL-8 and IL-10) and tumor necrosis factor α (TNF-α) were determined by Enzyme Linked Immuno Sorbent Assay. All the patients received the standard antibiotic prophylaxis for cardiac bypass surgery.
(§2) Patient selection was performed as follows. Patients undergoing elective coronary artery bypass grafting with an ejection fraction greater than or equal to 30%, no history of Diabetes mellitis and a normal chest x-ray were selected. Patients on ACE-inhibitors were not included in the study. The decision was made jointly by the consultant anesthetist and surgeon involved before inclusion in the study, and each patient was then randomized to drug or control. All the patients were nursed in the cardiac intensive care unit post operatively. Informed consent was sought from each patient before inclusion into the study.
(§3) Parameters 2-4 were assessed post aortic unclamping, 2 hours and 24 hours post-operatively.
(§4) Thirty-four patients were studied as described above.

[2] = tested on: IL-10; assay: Randomized clinical trial in CPB patients: IL-10 level by ELISA
Description: as §1, §2, §3, §4

[3] = tested on: TNF-α; assay: Randomized clinical trial in CPB patients: circulating TNF-α by ELISA; settings: perioperative taurolidine
Description: as §1
(§5) Patient selection was performed as follows. […]
as §3

[4] = tested on: IL-8; assay: Randomized clinical trial in CPB patients: circulating IL-8 by ELISA; settings: perioperative taurolidine
Description: as §1, §5, §3

[5] = tested on: neutrophil and monocyte activity (respiratory burst, phagocytosis, CD11b, CD14); assay: Randomized clinical trial in CPB patients: neutrophil and monocyte activity by flow cytometry; settings: perioperative taurolidine
Description: as §1, §5, §3

[6] = tested on: arrhythmia in CPB patients; assay: Arrhythmia in CPB patients during crystalloid cardioplegia; settings: of ten patients; crystalloid cardioplegia with taurolidine 2% solution (placebo: 8 of ten)
Source text: Ten patients underwent CPB using crystalloid cardioplegia with taurolidine 2% solution for myocardial protection. Another ten patients underwent CPB using crystalloid cardioplegia and a placebo for myocardial protection. Three of the patients treated with taurolidine experienced arrhythmia whereas 8 of the patients treated with placebo experienced arrhythmia.

[7] = 24 hours post aortic unclamping, crystalloid cardioplegia (Group A, n = 8), 250 mL 2% taurolidine i.v., mean ± s.d., *p < 0.05 vs. placebo
[8] = Group A vs. Group B, p<0.05 at 24 hours post aortic unclamping
[9] = crystalloid cardioplegia, Group A vs. Group C, 24 hour timepoint

O=S1(=O)CCN(CN2CCS(=O)(=O)NC2)CN1 [Taurolidine, bis(1,1-dioxoperhydro-1,2,4-thiadiazin-4-yl)methane]
Serum IL-6 level [1, 7]: 8.0 ± 1.4* pg/mL | Interleukin-6, crystalloid vs. blood cardioplegia in taurolidine patients [1, 8]: significantly down-regulated | Effect on interleukin-6 in combination with blood cardioplegia ([1]; blood cardioplegia, Group B vs. Group D): No beneficial effect | Interleukin-6 vs. placebo (in words) [1, 9]: significantly down-regulated | Serum IL-10 level [2, 7]: 28.2 ± 9.6* pg/mL | Interleukin-10, crystalloid vs. blood cardioplegia in taurolidine patients [2, 8]: significantly up-regulated | Interleukin-10 vs. placebo (in words) [2, 9]: significantly up-regulated | Effect on circulating TNF-α [3]: did not appear to modify | Effect on circulating IL-8 [4]: did not appear to modify | Effect on neutrophil or monocyte activity [5]: did not appear to modify | Number of patients who experienced arrhythmia [6]: Three
